Consider 5 compounds from patent publication US8158803B2, “Heterocyclic antiviral compounds” (Roche Palo Alto LLC, priority 2009, dated 2012).

Read-outs that look alike come from different tables or passages of the source.

Data set [1] relates to genotype 1b HCV replicon in Huh7 cell line 2209-23. The data set can be described thus: HCV replicon assay (Renilla luciferase reporter). To be noted: 2209-23 cells, three days incubation. It is filed as cell-based. (A replicon is a self-replicating genome or part of one, used to study replication in cells.)
The nature of another data set: in vitro. The note with it: human.
For data set [2], the target named is T1, HCV polymerase (NS5B570n-Con1) (Hepatitis C virus genotype 1b, UniProt Q9WMX2).
T1 construct: contains a 21 amino acid deletion at the C-terminus relative to the full-length HCV polymerase; 6-histidine (N); made in house; host or cells: E. coli BL21(DE) pLysS, plasmid pET17b
Briefly: HCV NS5B RNA polymerase activity assay. The data set is classed as biochemical, HCV Con1 strain. On the procedure: The enzymatic activity of HCV polymerase (NS5B570n-Con1) was measured as the incorporation of radiolabeled nucleotide monophosphates into acid insoluble RNA products. Unincorporated radiolabeled substrate was removed by filtration and scintillant was added to the washed and dried filter plate containing radiolabeled RNA product. The amount of RNA product generated by NS5B570-Con1 at the end of the reaction was directly proportional to the amount of light emitted by the scintillant.
The N-terminal 6-histidine tagged HCV polymerase, derived from HCV Con1 strain, genotype 1b (NS5B570n-Con1) contains a 21 amino acid deletion at the C-terminus relative to the full-length HCV polymerase and was purified from E. coli strain BL21(DE) pLysS. The construct, containing the coding sequence of HCV NS5B Con1 (GenBank accession number AJ242654) was inserted into the plasmid construct pET17b, downstream of a T7 promoter expression cassette and transformed into E. coli. A single colony was grown overnight as a starter culture and later used inoculate 10 L of LB media supplemented with 100 μg/mL ampicillin at 37° C. Protein expression was induced by the addition of 0.25 mM isopropyl-β-D-thiogalactopyranoside (IPTG) when optical density at […] of the culture was between 0.6 and 0.8 and cells were harvested after 16 to 18 h at 30° C. NS5B570n-Con1 was purified to homogeneity using a three-step protocol including subsequent column chromatography on Ni-NTA, SP-Sepharose HP and Superdex 75 resins.
Reaction mixtures were assembled in 96-well filter plates (cat #MADVN0B, Millipore Co.) and incubated for 2 h at 30° C. Reactions were stopped by addition of 10% final (v/v) trichloroacetic acid and incubated for 40 min at 4° C. […]
The amount of light emitted from the scintillant was converted to counts per minute (CPM) on a Topcount® plate reader (Perkin-Elmer, Energy Range: Low, Efficiency Mode Normal, Count Time: 1 min, Background Subtract: none, Cross talk reduction: Off).
Data was analyzed in Excel® (Microsoft) and ActivityBase® (Idbs®). […] All data was expressed as a percentage of the positive control. […]

For data set [3], the system named is HCV replicon cells (2209-23). To be noted: read-out: Cytotoxicity CC50; 2209-23 cells, WST-1. (Tetrazolium assays rely on reduction of a dye to a coloured formazan, in cell work by metabolically active cells.)
Another data set deals with HCV. To be noted: cited from earlier work.

Regarding `COc1c(C2CC2c2ccc(NS(C)(=O)=O)cc2)cc(-c2ccc[nH]c2=O)cc1C(C)(C)C` (centres unmarked) [Compound I-2, N-(4-{2-[3-tert-Butyl-2-methoxy-5-(2-oxo-1,2-dihydro-pyridin-3-yl)-phenyl]-cyclopropyl}-phenyl)-methanesulfonamide], half-maximal inhibition in data set [1] (Hepatitis C virus, Huh-7, 72 h) (IC50) was put at 109 nM. The compound also had a CC50 in the data set “in vitro” of 15 µM.
For `CC(C)(C)c1cc(-c2ccc[nH]c2=O)cc(C2CC2c2ccc(NS(C)(=O)=O)cc2)c1` (centres unmarked) [Compound I-1, N-(4-{2-[3-tert-Butyl-5-(2-oxo-1,2-dihydro-pyridin-3-yl)-phenyl]-cyclopropyl}-phenyl)-methanesulfonamide], the melting point (usually the temperature, or range, at which the solid turns liquid) lay within 162 to 164 °C. Also, the IC50 – broadly, the concentration needed to halve the response being measured – in data set [2] is 21 nM.
Turning to “N-(6-{2-[3-tert-Butyl-6-hydroxy-2-methoxy-5-(2-oxo-1,2-dihydro-pyridin-3-yl)-phenyl]-cyclopropyl}-pyridin-3-yl)-methanesulfonamide [Compound I-4]”, the CC50 in data set [3] is 32.8 µM. Also, the IC50 in data set [1] came to 78 nM; in data set [2] (NS5B570n-Con1, genotype 1b, read-out: IC50 HCV Polymerase Assay) it was 8 nM.
As to `NC(=O)c1ncn([C@@H]2O[C@H](CO)[C@@H](O)[C@H]2O)n1` [ribavirin, 1-((2R,3R,4S,5R)-3,4-Dihydroxy-5-hydroxymethyl-tetrahydro-furan-2-yl)-1H-[1,2,4]triazole-3-carboxylic acid amide], in the data set with HCV (human, in vivo), the toxicity result was “exhibits significant toxicity and is known to induce anemia”. Also, in the data set with HCV (monotherapy), the “patients with serum amino transferase levels reduced to normal” value is listed as 40%.
The compound `CC(C)(C)c1cc(-c2ccc[nH]c2=O)c(O)c(C2CC2c2ccc(NS(C)(=O)=O)cc2)c1` (centres unmarked) [Compound I-3, N-(4-{2-[5-tert-Butyl-2-hydroxy-3-(2-oxo-1,2-dihydro-pyridin-3-yl)-phenyl]-cyclopropyl}-phenyl)-methanesulfonamide] had a melting point of 148 to 150 °C. Also, the midpoint of inhibition in data set [2], the IC50, lay at 12 nM.
